# Data from patent US20130267549A1, “Use of Pyrimidylaminobenzamide Derivatives for the Treatment of Fibrosis” (NOVARTIS AG, priority 2009, published 2013).
# Test system: Rat Bleomycin Model
# Assay: Rat bleomycin model of lung fibrosis: histological analysis of interstitial collagen deposition (Picrosirius red stain)
# Assay type: in vivo
# Conditions: co-administration with bleomycin, relative area and intensity of interstitial collagen (manual score), FIG. 1
# Protocol: Appl. Pharmacol. (1992)116:30-7). Another well-established model for lung fibrosis is the rat bleomycin model published by E. White et al, Am J Respir Crit Care Med. 2006, 173: 112-121.
# A histological analysis of levels of collagen deposition in the lung interstitium, as determined using Picrosirius red stain, for bleomycin alone as well as combinations of bleomycin and several other compounds, including AMN107, was performed. As depicted in FIG. 1 showing the levels of interstitial collagen in lung tissue as determined histologically using Picrosirius red stain (statistical analysis: Man Whitney rank sum test), co-administration of AMN107 can reduce the effect of bleomycin by more than 50%.
compound,measurement,value
"Cc1cn(-c2cc(NC(=O)c3ccc(C)c(Nc4nccc(-c5cccnc5)n4)c3)cc(C(F)(F)F)c2)cn1 [AMN107, 4-methyl-3-[[4-(3-pyridinyl)-2-pyrimidinyl]amino]-N-[5-(4-methyl-1H-imidazol-1-yl)-3-(trifluoromethyl)phenyl]benzamide]",reduction of the effect of bleomycin on levels of interstitial collagen in lung tissue,more than 50%
